The test system of data set [1] is MCF7. Briefly: Antiproliferative activity against human MCF7 cells assessed as inhibition of cell growth incubated for 72 hrs by MTT assay. The data set is classed as functional, cell-based. Conditions: MCF7, 72 h. A general note: Tetrazolium dyes change colour on reduction, which living cells bring about.
In data set [2] the test system is MDA-MB-231. As to the kind of experiment: Antiproliferative activity against human MDA-MB-231 cells assessed as inhibition of cell growth incubated for 72 hrs by MTT assay. The data set is classed as functional, cell-based. As to conditions: MDA-MB-231, 72 h.
The target of data set [3] is T1, Cytochrome P450 7A1 (Homo sapiens, UniProt P22680). Briefly: Binding affinity to recombinant human CYP7A1 assessed as substrate-type binding by measuring dissociation constant by spectrophotometric titration method. The data set is classed as ADME.
For data set [4], the target named is T2, Cytochrome P450 7B1 (Homo sapiens, UniProt O75881).
T2 sequence (O75881 whole entry): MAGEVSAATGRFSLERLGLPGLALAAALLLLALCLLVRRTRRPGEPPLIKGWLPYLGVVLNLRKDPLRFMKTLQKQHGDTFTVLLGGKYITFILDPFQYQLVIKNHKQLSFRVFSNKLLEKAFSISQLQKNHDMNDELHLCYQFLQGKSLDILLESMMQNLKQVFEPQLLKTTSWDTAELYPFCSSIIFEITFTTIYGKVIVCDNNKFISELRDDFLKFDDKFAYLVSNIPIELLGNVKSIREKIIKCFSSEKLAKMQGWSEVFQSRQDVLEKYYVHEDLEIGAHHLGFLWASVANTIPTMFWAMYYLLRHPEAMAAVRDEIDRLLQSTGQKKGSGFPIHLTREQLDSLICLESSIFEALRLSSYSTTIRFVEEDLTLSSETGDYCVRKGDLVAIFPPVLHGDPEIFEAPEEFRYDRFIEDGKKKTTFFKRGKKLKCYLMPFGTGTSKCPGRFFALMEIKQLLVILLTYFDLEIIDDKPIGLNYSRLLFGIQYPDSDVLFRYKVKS
As to the kind of experiment: Binding affinity to recombinant human CYP7B1 assessed as substrate-type binding by measuring dissociation constant by spectrophotometric titration method. The class given is ADME.

Data set [5] deals with MCF7. As to the kind of experiment: Anti-estrogenic activity in human MCF7 cells assessed as reduction in ERalpha protein expression at 1.7 to 15 uM measured after 48 hrs by immunoblot analysis. Conditions: dose 1.7-15 µM. The data set is classed as functional, cell-based. (A western blot detects proteins with antibodies after separation by electrophoresis.)
The test system of data set [6] is MCF7. Briefly: Anti-estrogenic activity in human MCF7 cells assessed as reduction in GREB1 protein expression at 1.7 to 15 uM measured after 48 hrs by immunoblot analysis. The data set is classed as functional, cell-based. Conditions: dose 1.7-15 µM.
In data set [7] the test system is MCF7. As to the kind of experiment: Anti-estrogenic activity in human MCF7 cells transfected with luciferase gene under control of estrogen response elements cotransfected with beta-galactosidase assessed as reduction in 17beta-estradiol induced ERalpha protein expression by measuring reduction in luciferase activity measured after 24 hrs. The data set is classed as functional, cell-based. As to conditions: dose 1.7-20 µM.

For data set [8], the system named is MCF7. As to the kind of experiment: Effect on E-cadherin protein expression in human MCF7 cells at 1.7 to 15 uM measured after 48 hrs by immunoblot analysis. Conditions: dose 1.7-15 µM. The class given is functional, cell-based.
Data set [9] concerns MCF7. Briefly: Effect on activated AKT protein level in human MCF7 cells at 1.7 to 15 uM measured after 48 hrs by immunoblot analysis. The data set is classed as functional, cell-based. As to conditions: dose 1.7-15 µM.
For data set [10], the system named is MCF7. As to the kind of experiment: Downregulation of cyclin D1 protein expression in human MCF7 cells at 1.7 to 15 uM measured after 48 hrs by immunoblot analysis. The class given is functional, cell-based. Conditions: dose 1.7-15 µM.
The test system of data set [11] is MCF7. Briefly: Downregulation of CDK4 protein expression in human MCF7 cells at 1.7 to 15 uM measured after 48 hrs by immunoblot analysis. Conditions: dose 1.7-15 µM. The class given is functional, cell-based.
For data set [12], the system named is MCF7. Briefly: Downregulation of PCNA protein level in human MCF7 cells at 15 uM measured after 48 hrs by immunoblot analysis. The data set is classed as functional, cell-based.
For data set [13], the system named is MCF7. Briefly: Induction of cell death in human MCF7 cells assessed as accumulation of cleaved PARP level at 1.7 to 15 uM measured after 48 hrs by immunoblot analysis. Conditions: dose 1.7-15 µM. The data set is classed as functional, cell-based.
In data set [14] the test system is MCF7. As to the kind of experiment: Induction of cell death in human MCF7 cells assessed as reduction in Bcl-2 protein expression measured after 48 hrs by immunoblot analysis. The data set is classed as functional, cell-based. Conditions: dose 1.7-15 µM.
Data set [15] in a line: Cytotoxicity against human THP-1 cells assessed as inhibition of cell growth incubated for 72 hrs by MTT assay. The data set is classed as toxicity, cell-based.
Data set [16] in a line: Selectivity index, ratio of IC50 for human THP-1 cells to IC50 for human MCF7 cells.
Data set [17] deals with MCF7. Briefly: Synergistic antiproliferative activity against human MCF7 cells assessed as reduction in cell viability at 2.4 uM incubated for 72 hrs in presence of AKT inhibitor IV 6-(2-benzothiazolyl)-1-ethyl-2-[2-(methylphenylamino)ethenyl]-3-phenyl-1H-benzimidazolium mono iodide by MTT assay. The data set is classed as functional, cell-based.
Data set [18] deals with T1, Cytochrome P450 7A1. Briefly: Binding affinity to recombinant human CYP7A1 by spectrophotometric titration method. The class given is ADME. As to conditions: recombinant enzyme.
The target of data set [19] is T2, Cytochrome P450 7B1. As to the kind of experiment: Binding affinity to recombinant human CYP7B1 by spectrophotometric titration method. The class given is ADME. As to conditions: recombinant enzyme.
The target of data set [20] is T3, Steroid 17-alpha-hydroxylase/17,20 lyase (Homo sapiens, UniProt P05093).
T3 sequence (P05093 whole entry): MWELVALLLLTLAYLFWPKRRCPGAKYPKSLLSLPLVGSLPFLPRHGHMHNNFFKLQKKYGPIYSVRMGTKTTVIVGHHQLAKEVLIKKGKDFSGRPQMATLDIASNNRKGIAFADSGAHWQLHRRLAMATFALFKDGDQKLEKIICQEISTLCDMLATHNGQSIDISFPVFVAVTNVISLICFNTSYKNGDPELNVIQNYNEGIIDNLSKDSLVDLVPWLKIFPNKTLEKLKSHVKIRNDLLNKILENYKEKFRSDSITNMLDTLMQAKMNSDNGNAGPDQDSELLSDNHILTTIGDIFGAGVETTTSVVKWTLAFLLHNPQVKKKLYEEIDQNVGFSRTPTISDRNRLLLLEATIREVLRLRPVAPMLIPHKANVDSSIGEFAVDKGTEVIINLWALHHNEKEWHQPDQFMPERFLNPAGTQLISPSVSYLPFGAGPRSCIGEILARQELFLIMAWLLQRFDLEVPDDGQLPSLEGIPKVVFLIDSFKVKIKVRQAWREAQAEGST
As to the kind of experiment: Binding affinity to recombinant human CYP17A1 by spectrophotometric titration method. The data set is classed as ADME. Conditions: recombinant enzyme.

Another data set deals with T4, Aromatase (Homo sapiens, UniProt P11511).
T4 sequence (P11511 whole entry): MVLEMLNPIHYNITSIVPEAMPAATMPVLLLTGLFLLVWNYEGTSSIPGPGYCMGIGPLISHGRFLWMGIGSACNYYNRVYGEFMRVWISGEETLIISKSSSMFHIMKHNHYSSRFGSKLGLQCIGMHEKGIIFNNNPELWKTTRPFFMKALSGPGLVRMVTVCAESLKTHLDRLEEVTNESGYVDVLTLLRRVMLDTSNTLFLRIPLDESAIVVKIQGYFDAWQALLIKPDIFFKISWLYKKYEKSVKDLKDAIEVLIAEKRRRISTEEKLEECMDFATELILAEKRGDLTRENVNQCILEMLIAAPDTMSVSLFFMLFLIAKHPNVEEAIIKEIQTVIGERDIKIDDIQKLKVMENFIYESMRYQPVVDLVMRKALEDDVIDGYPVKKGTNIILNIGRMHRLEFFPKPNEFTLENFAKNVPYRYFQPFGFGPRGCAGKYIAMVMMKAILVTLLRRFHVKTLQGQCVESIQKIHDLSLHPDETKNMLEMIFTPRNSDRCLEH
As to the kind of experiment: Binding affinity to recombinant human CYP19A1 by spectrophotometric titration method. The class given is ADME. Conditions: recombinant enzyme.

A further data set concerns the target T5, Steroid 21-hydroxylase (Homo sapiens, UniProt P08686).
T5 sequence (P08686 whole entry): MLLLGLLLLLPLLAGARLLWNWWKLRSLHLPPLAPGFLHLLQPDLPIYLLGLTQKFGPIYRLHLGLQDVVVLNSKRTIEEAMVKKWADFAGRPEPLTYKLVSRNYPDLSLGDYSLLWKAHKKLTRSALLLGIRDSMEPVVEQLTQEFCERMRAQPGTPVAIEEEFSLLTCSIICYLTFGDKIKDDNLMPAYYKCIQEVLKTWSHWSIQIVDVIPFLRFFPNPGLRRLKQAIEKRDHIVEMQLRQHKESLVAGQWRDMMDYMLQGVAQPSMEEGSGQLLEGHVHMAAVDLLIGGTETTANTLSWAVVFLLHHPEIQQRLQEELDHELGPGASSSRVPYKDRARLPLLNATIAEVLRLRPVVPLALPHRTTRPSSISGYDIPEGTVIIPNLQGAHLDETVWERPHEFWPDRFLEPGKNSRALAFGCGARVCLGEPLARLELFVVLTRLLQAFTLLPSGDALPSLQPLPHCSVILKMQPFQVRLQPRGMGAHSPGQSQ
As to the kind of experiment: Binding affinity to recombinant human CYP21A2 by spectrophotometric titration method. The data set is classed as ADME. Conditions: recombinant enzyme.

Data set [21] deals with MCF7. Briefly: Antiproliferative activity against estrogen-responsive human MCF7 cells assessed as inhibition of cell growth by MTT assay. The class given is functional, cell-based.
The subject of data set [22] is MDA-MB-231. Briefly: Antiproliferative activity against estrogen-independent human MDA-MB-231 cells assessed as inhibition of cell growth by MTT assay. The data set is classed as functional, cell-based.

Activity calls are given as the source filed them. The calls are words filed in the database; no cut-off is given here. A value given as a limit tells only on which side of the number the result lay.

T1 sequence (P22680 whole entry): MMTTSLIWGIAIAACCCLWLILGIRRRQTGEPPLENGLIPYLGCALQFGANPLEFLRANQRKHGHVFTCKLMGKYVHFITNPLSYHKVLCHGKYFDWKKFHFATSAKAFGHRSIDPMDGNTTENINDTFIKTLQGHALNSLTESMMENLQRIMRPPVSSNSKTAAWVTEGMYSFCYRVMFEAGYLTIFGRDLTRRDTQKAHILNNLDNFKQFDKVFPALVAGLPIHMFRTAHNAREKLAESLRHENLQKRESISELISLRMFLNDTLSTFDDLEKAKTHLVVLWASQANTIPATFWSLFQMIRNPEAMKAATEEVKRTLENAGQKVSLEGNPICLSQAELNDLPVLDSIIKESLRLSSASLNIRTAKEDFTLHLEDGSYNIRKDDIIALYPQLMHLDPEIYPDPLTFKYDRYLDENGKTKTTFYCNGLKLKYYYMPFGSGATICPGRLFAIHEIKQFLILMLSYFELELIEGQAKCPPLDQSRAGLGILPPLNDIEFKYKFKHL

What is called IC50 is the concentration needed to halve the response being measured. In general, Kd refers to the free concentration of one partner at which half of the binding sites on the other are occupied at equilibrium, for simple one-to-one binding. Take `CC(C)(C)NP(=O)(NC(C)(C)C)c1nncc2c1CC1CC[C@H]3[C@@H]4CC[C@H](O)[C@@]4(C)CC[C@@H]3[C@@]1(C)C2` (stereo partly specified): the results for the half-inhibitory concentration (IC50) in the data set with MCF7 [1] and in the data set with MDA-MB-231 [2] were 22.1 µM and above 25 µM, respectively. For the same compound, the dissociation constant Kd turned out to be 2.1 µM at Cytochrome P450 7A1 [3] and 1.7 µM on Cytochrome P450 7B1 [4].
With `C[C@]12CCC(=O)C=C1CC[C@@H]1[C@@H]2CC[C@]2(C)c3c(cnnc3P(=O)(Nc3ccccc3)Nc3ccccc3)C[C@@H]12`, the results for the IC50 in the data set with MCF7 [1] and in the data set on MDA-MB-231 [2] were 5.9 µM and 22 µM, respectively. Further, the result in the data set on MCF7 [5], in the data set on MCF7 [6], in the data set on MCF7 [10], with MCF7 [11], in the data set with MCF7 [12] and in the data set on MCF7 [13] was Active. Further, the result in the data set with MCF7 [17] was Active. The Activity result was “Dose-Dependent Effect” with MCF7 [7]; “Dose-Dependent Effect” in the data set with MCF7 [14]; “Not Active” at Cytochrome P450 7A1 [18]; “Not Active” on Cytochrome P450 7B1 [19]; “Not Active” in [20]; “Not Active” at Aromatase. Further, the Activity entry on Steroid 21-hydroxylase is listed as “Not Active”. Further, the outcome in the data set with MCF7 [8] and in the data set on MCF7 [9] was inactive. For the same compound, in [15], the IC50 at 72 h is above 50 µM. For the same compound, the “Ratio IC50” value in data set [16] was above 8.5.
As to `CC(=O)O[C@H]1CC[C@@]2(C)C(=CC[C@@H]3[C@@H]2CC[C@]2(C)c4c(cnnc4C(=O)Nc4ccc(C(F)(F)F)cc4)C[C@@H]32)C1`, the concentration for half-maximal inhibition (IC50) in the data set with MCF7 [21] worked out at 4.9 µM.
`COc1ccc(NC(=O)c2nncc3c2[C@@]2(C)CC[C@H]4[C@@H](CC=C5C[C@@H](OC(C)=O)CC[C@@]54C)[C@@H]2C3)cc1`: the IC50 in the data set with MDA-MB-231 [22] worked out at 12.5 µM.

These data come from ChEMBL document CHEMBL5550194, “Design and synthesis of phosphoryl-substituted steroidal pyridazines (Pho-STPYRs) as potent estrogen receptor alpha inhibitors: targeted treatment of hormone-dependent breast cancer cells” (RSC Med Chem, 2024).
